# Data: patent US4318864A, “Process for making s-phenenyltris(sulfonylimino)tri-benzene mono- and di-sulfonic acids and salts” (American Cyanamid Company, priority 1980, dated 1982)
# Counter-ions that a name gives are not always drawn. Like-named read-outs stand apart in the source and are kept apart here.
# What was measured:
# activated human C1 = activated human C1 (Homo sapiens, UniProt P09871); test: Test Code 026 (C1 inhibitor); assay type: biochemical; details: serial dilution assay, twofold dilutions; higher well number indicates higher activity
# [1] = tested on: late components of human complement (C3-C9); test: Test Code 035 (C3-C9 inhibitor), lysis of EAC 142; assay type: biochemical; set-up: key: N = Negative; details: serial dilution assay, twofold dilutions
# shunt pathway = test: Test Code 036 (C-Shunt inhibitor), lysis of human erythrocytes via cobra venom factor activated shunt pathway; assay type: biochemical; set-up: key: N = Negative; details: serial dilution assay, twofold dilutions
# [2] = tested on: complement activity in serum; test: Guinea Pig Intraperitoneal Test (GPIP); assay type: in vivo; details: Cavia porcellus, ip, 200 mg./kg. i.p.
smiles,measurement,setting,value
"O=S(=O)(O)c1cc(NS(=O)(=O)c2cc(S(=O)(=O)Nc3cc(S(=O)(=O)O)cc(S(=O)(=O)O)c3)cc(S(=O)(=O)Nc3cc(S(=O)(=O)O)cc(S(=O)(=O)O)c3)c2)cc(S(=O)(=O)O)c1 [5,5',5""-[s-Phenenyltris(sulfonylimino)]tri-m-benzenedisulfonic acid, hexasodium salt]",Cl 026 Wells,activated human C1,+8 Wells
same,C-Late 035 Wells,[1],N
same,Shunt Inhibition 036 Wells,shunt pathway,N
same,inhibition at 200 mg/kg,"[2]; 0.5 h, 30 min after injection, read-out: In Vivo Activity (Guinea pig) % Inhibition Intraperitoneal, 30 min",-75%
same,inhibition at 200 mg/kg,"[2]; 1 h, 60 min after injection, read-out: In Vivo Activity (Guinea pig) % Inhibition Intraperitoneal, 60 min",-75%
same,inhibition at 200 mg/kg,"[2]; 2 h, 120 min after injection, read-out: In Vivo Activity (Guinea pig) % Inhibition Intraperitoneal, 120 min",-81%
